From patent US10292991B2, “Small molecule therapeutic compounds that reduce the incidence of intracerebral hemorrhage and brain microhemorrhages” (St. Michaels Hospital, priority 2016, dated 2019)
Read-outs that look alike come from different tables or passages of the source.

What was measured:
[1] = system: brain hemorrhage induced by 1 μM atorvastatin in zebrafish; assay: Atorvastatin-induced brain hemorrhage (ICH) model in zebrafish, rescue by drugs; settings: for EC50: Danio rerio
Procedure: Zebrafish were set up the night before the experiment day. In the morning of the experimental day, we put breeders together for mating and fertilization. 6 hours post-fertilization (hpf), statins was added into a 96-well plate holding 100 μl water with 7 to 8 fish eggs in each well, which was optimized through a serial pilot experiments. Statins were dissolved in DMSO and diluted with 0.5% of DMSO water into a working solution. 100 μl water containing 0.5% of DMSO was the medium for all wells in the final assessment.
For screening NIH compound libraries, 5 μM of each of the drugs from the library was added at 24 hpf into wells containing fish eggs treated with 1 μM ATV since 6 hpf. Hemorrhage positive control wells were treated with ATV but not treated with any drugs. Negative controls were not treated with any chemicals (fish with 0.5% of DMSO water). Geranylgeranyl pyrophosphate (GGPP, 4 mg/L) was used as positive rescue control.
Brain hemorrhage was assessed 72 hpf (66 hours after addition of statins) using stereomicroscopy by two observers. Percentage of brain hemorrhage was used as final readout. Compounds showing more than 70% of rescue of the brain hemorrhages in the initial test were re-tested to generate a final list of hits from the library.
All subsequent EC50 assays of positive compounds were performed with protocols established and optimized during the screening.

CCM3 (Ccm3) mRNA = assay: qRT-PCR of CCM3 mRNA in atorvastatin-treated zebrafish larvae; format: in vivo, zebrafish (Danio rerio); settings: 1 μmol/L atorvastatin plus 500 nmol/L drug, n=3
Procedure: (§1) qRT-PCR was used to assess relative expression of selected genes (an average of two biological trial and three technical replicates and each trial is a pool of 60 larvae/treatment), using β-actin as the housekeeping gene control. 3 dpf, Tg(Flk:GFP; Gata:dsRed) zebrafish larvae were used for RNA extraction and cDNA synthesis. Atorvastatin and drug treatment were performed as previously mentioned in drug screening. Total RNA was extracted from these larvae (a pool of 50-60 larvae/treatment) using the RNeasy extraction kit (Qiagen, Mississauga, ON, CAN) and treated with DNase. The concentration of total RNA was determined spectrophotometrically at 260/280 nm using a NanoDrop™ spectrophotometer. First-strand cDNA was synthesized from 1 μg of total RNA using random hexamer primers.
(§2) In each case, forward primer is shown on the top and reverse primer on the bottom.
(§3) PCR was carried out in a 20 μl total volume and included 1×PCR buffer, 1.25 mM MgCl2, 0.25 mM dNTP, 1 U Taq polymerase, 0.5 μmol/L forward, and reverse primers and 1 μl cDNA.

Integrin β3 (Itgb3) mRNA = assay: qRT-PCR of integrin β3 mRNA in atorvastatin-treated zebrafish larvae; format: in vivo, zebrafish (Danio rerio); settings: 1 μmol/L atorvastatin plus 500 nmol/L drug, n=3
Procedure: as §1, §2, §3

[2] = system: Pak2a - exon8 morpholino-induced hemorrhage in zebrafish; assay: Pak2a morpholino-induced hemorrhage in zebrafish, rescue by drugs; format: in vivo, zebrafish (Danio rerio); settings: Danio rerio; Table 6
Procedure: Danieau buffer (58 mM NaCl, 0.7 mM KCl, 0.4 mM MgSO4, 0.6 mM Ca(NO3)2, 5.0 mM HEPES, pH 7.6) was used to dilute the MO solutions to 0.2 mM final concentration. Individual wells were placed on a 1.0% agarose plate, in which the embryos were positioned. Afterwards, the MO solution was injected through the cell yolk into embryos of 1 to 4 cell-stage. The injected quantities varied from 0.5 to 15 ng.
Another MO was designed to block the splice-donor sites after exon 8 in pak2a. Pak2a is the gene mutated in the rhdmi149 zebrafish mutant that develops ICH/BMH.
Efficacy assays were performed using Artemether (ARM, Sigma) and artemesunate (ART, GMP).

VE-Cadherin (Cdh5) mRNA = assay: qRT-PCR of VE-cadherin mRNA in atorvastatin-treated zebrafish larvae; format: in vivo, zebrafish (Danio rerio); settings: 1 μmol/L atorvastatin plus 500 nmol/L drug, n=3
Procedure: as §1, §2, §3

[3] = Spectrophotometer analysis of blood hemoglobin concentration (Drabkin's method); format: in vivo, C57BL/6 mice; settings: 25 mg/kg or 100 mg/kg for 3 days, n=4; no statistical difference between groups
Procedure: Drabkin's reagent (Sigma Aldrich) was used for calorimetric quantification of hemoglobin concentration at 540 nm. C57BL/6 mice were randomly assigned to three groups (each n=4): Control, Low-dose ARM, and High-dose ARM. For ARM groups, three days of 25 mg/kg/day and 100 mg/kg/day ARM were administered for low and high dose, respectively. Blood from saphenous vein were collected at day 4 and tested for hemoglobin concentration using UV 3600 Shimadzu spectrophotometer. A standard curve was generated using a known standard solution of cyanmethemoglobin, and blood concentrations of Hb was compared to the standard curve.
To assess possible anemia effect from ARM treatment as some previous studies speculated, blood samples were tested for hemoglobin concentration after ARM treatment. Blood hemoglobin concentration was assessed using Drabkins' method. Spectrophotometer data was compared to a standard curve from standard cyanmethemoglobin concentrations. The control group received no drug. The Treatment Dose group received 3 days injection of low dose ARM (25 mg/kg), 4× Treatment Dose group received 3 days injection of high dose ARM (100 mg/kg).

## CO[C@H]1O[C@@H]2O[C@@]3(C)CC[C@H]4[C@H](C)CC[C@@H]([C@H]1C)[C@@]24OO3 [Artemether]
[1]; 500 nmol/L drug, 3 dpf
  Hemorrhage in zebrafish treated with 1 μmol/L atorvastatin and drug: no hemorrhage was observed
[1]; ATV model induced by 1 μmol/L atorvastatin, inhibition of hemorrhage
  Efficacy on atorvastatin Hemorrhage: +++++ (One + sign represents 20% inhibition on 1 μmol/L ATV or β-Pix MO-induced hemorrhage.)
[1]; read-out: EC50 (in nmol/L) on atorfvastatin model (μmol/L)
  EC50: 64 nmol/L
[1]; read-out: EC50 to rescue brain hemorrhage, Statin Model
  EC50: 24.7 nmol/L
CCM3 (Ccm3) mRNA
  CCM3 transcription level (qRT-PCR): returned to normal
Integrin β3 (Itgb3) mRNA
  Integrin β3 transcription level (qRT-PCR): upregulation
[2]
  EC50: 0.0391 ± 0.008 µM
VE-Cadherin (Cdh5) mRNA
  VE-cadherin transcription level (qRT-PCR): upregulation
[3]
  Anemia (blood hemoglobin concentration): did not cause anemia
